Here are results for 11 compounds from ChEMBL document CHEMBL1150529, “Synthesis and pharmacological activity of SC-53228, a leukotriene B4 receptor antagonist with high intrinsic potency and selectivity” (Bioorg Med Chem Lett, 1994).

Usually IC50 stands for the point on the concentration scale where inhibition reaches its midpoint.

The source made the active and inactive calls. The rule behind the calls is not given here. A value given as a limit tells only on which side of the number the result lay.

The species entered for one test is Homo sapiens. In words: Compound was tested for inhibitory activity against leukotriene B4 induced neutrophil chemotaxis. The format is functional.
Test [1] has as its target Leukotriene B4 receptor 1 (Homo sapiens, UniProt Q15722). As to the kind of experiment: Inhibitory activity against leukotriene B4 receptor.
For test [2], the system named is Mus musculus. As to the kind of experiment: Topical effective dose for TPA induced ear inflammation in the mouse. The test is classed as functional.
The species named for another test is Cavia porcellus. In words: Oral effective dose for guinea pig LTB4 induced intradermal chemotaxis. The test is classed as functional.
The species named for test [3] is Mus musculus. As to the kind of experiment: Oral effective dose for TPA induced ear inflammation in the mouse. The test is classed as functional.
The test system of another test is Rattus norvegicus. In words: Tested for increase in fatty acyl Co-A activity in rats dosed for 7 days at a dose of 200 mg/kg/day; NS means no significant activity. The format is functional, organism-based.

Chain of Leukotriene B4 receptor 1 (Q15722 whole entry): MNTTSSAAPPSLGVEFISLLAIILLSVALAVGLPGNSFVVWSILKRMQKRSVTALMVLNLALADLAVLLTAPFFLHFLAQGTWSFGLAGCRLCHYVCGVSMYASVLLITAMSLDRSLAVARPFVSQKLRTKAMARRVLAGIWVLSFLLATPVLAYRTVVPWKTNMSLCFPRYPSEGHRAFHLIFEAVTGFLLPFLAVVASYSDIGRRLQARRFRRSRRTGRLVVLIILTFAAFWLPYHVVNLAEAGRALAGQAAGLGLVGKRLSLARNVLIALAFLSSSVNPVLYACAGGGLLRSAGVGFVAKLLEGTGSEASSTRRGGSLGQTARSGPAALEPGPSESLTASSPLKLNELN

Consider `CCCc1c(OCCCOc2ccc(C(=O)NC)c(OC)c2CC2CC2)ccc2c1OC(CCC(=O)O)CC2` (centres undefined), for which the IC50 in the test filed under Homo sapiens was determined as 21.9 nM; in test [1] it was 10.9 nM.
In the test listed under Homo sapiens, `CCCCC/C=C\C[C@@H](O)/C=C/C=C/C=C\[C@@H](O)CCCC(=O)O` [LEUKOTRIENE_B4] showed an IC50 of 1.79 nM.
As for `CCCc1c(OCCCOc2ccc(C(=O)N(C)C)c(OC)c2CCC)ccc2c1OC(C(=O)O)CC2` (centres undefined), the half-inhibitory concentration (IC50) in the test filed under Homo sapiens was less than 0.14 nM; in test [1] it was 0.15 nM.
Regarding `CCCc1c(OCCCOc2ccc(C(=O)NC)c(OC)c2CC2CC2)ccc2c1O[C@H](CCC(=O)O)CC2`, the figures for the IC50 (in the test filed under Homo sapiens; in test [1]) were 24.4 nM and 14.5 nM, respectively. Moreover, the ED50 in the test on Mus musculus [2] is 200 µg; in the test filed under Cavia porcellus it was 0.07 mg/kg; in the test listed under Mus musculus [3] it was less than 2.5 mg/kg. The result in the test with Rattus norvegicus was inactive.
As for `CCCc1c(OCCCOc2ccc(C(=O)NC)c(OC)c2CC2CC2)ccc2c1OC(C(=O)O)CC2` (centres undefined), the values for the IC50 (in the test filed under Homo sapiens; in test [1]) were 13 nM and 5.3 nM, respectively.
Consider `CCCc1c(OCCCOc2ccc(C(N)=O)c(OC)c2CCC)ccc2c1OC(C(=O)O)CC2` (centres undefined), for which the half-maximal inhibitory concentration (IC50) in the test filed under Homo sapiens came out at 2.7 nM; in test [1], 2.4 nM.
For `CCCc1c(OCCCOc2ccc(C(=O)N3CCCC3)c(OC)c2CCC)ccc2c1OC(C(=O)O)CC2` (centres undefined), the IC50 is less than 0.16 nM in the test filed under Homo sapiens and less than 0.1 nM in test [1].
With `CCCc1c(OCCCOc2ccc(C(=O)NC)c(OC)c2CC2CC2)ccc2c1O[C@@H](CCC(=O)O)CC2`, the IC50 in the test listed under Homo sapiens is 10.7 nM; in test [1], 8.5 nM. Also, the ED50 with Mus musculus [2] amounted to 1200 µg; in the test filed under Cavia porcellus, 0.2 mg/kg.
`CCCc1c(OCCCOc2ccc(C(C)=O)c(OC)c2CCC)ccc2c1OC(C(=O)O)CC2` (centres undefined) [SC-41390] had an IC50 in the test filed under Homo sapiens of 1 nM. Moreover, the ED50 in the test with Mus musculus [2] amounted to 1400 µg; in the test listed under Cavia porcellus, 1.7 mg/kg; in the test filed under Mus musculus [3] it was 18 mg/kg.
`CCCc1c(OCCCOc2ccc(C(=O)NC(C)C)c(OC)c2CCC)ccc2c1OC(C(=O)O)CC2` (centres undefined): the figures for the IC50 (in the test filed under Homo sapiens; in test [1]) were 0.11 nM and 0.1 nM, respectively.
Taken in the same sequence, the figures for `CCCc1c(OCCCOc2ccc(C(=O)NC)c(OC)c2CCC)ccc2c1OC(C(=O)O)CC2` (centres undefined) were 1.3 nM and 0.85 nM.
